# Measured values published in ChEMBL document CHEMBL1201862, “PubChem BioAssay data set” (2004).
#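 Interpolation was linear, between the two tested concentrations surrounding the appropriate level; five concentrations were tested over 48 hours in 96-well plates. Here, GI50 denotes the concentration required for 50% inhibition of growth.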 Calls of active or inactive are those of the source. No stated cut-off is given here; in the data, active = GI50 up to about 1.1 µM and inactive = higher. Starred links: 1 amine or outer side, 2 acyl side, 3 side chain; linkers in the order of their positions; H or OH if unused. Positions of bridges follow the written chain, without caps; N, C: chain ends. Non-standard residues stand in square brackets, D forms with d. Residues, ends and D or L forms follow the SMILES beside them. Chains are numbered I, II in the order given. ξ: configuration not given here. X42 = N=C(N)NCCC[C@H](NC(=N)CCCCCCC(=N)N[C@@H](CCCNC(=N)N)C(=O)[*:2])C(=O)[*:1]; Oic(3aξ,7aξ) = O=C(O)[C@@H]1CC2CCCCC2N1; Igl = N[C@H](C(=O)O)C1Cc2ccccc2C1; Hyp = O=C(O)[C@@H]1C[C@@H](O)CN1
# Legend:
# Assay in all cases: DTP human tumour cell line panel, 48 h
# MDA-N = system: MDA-N
# SNB-78 = system: SNB-78
# DMS-114 = system: DMS-114
# DMS-273 = system: DMS-273
# KM-20L2 = system: KM-20L2
# Hs-578T = system: Hs-578T
# XF498 = system: XF498
# M19-MEL = system: M19-MEL
# RXF 631 = system: RXF 631
Compound,GI50 (MDA-N),GI50 (Hs-578T),other results
COc1ccc(-c2csc3c2-n2cccc2C3=O)cc1,0.0135 µM (active),,
NC(=O)N/C=C1\C(=O)Oc2ccccc2C1=O,,,GI50 (SNB-78): 43.2 µM (inactive); GI50 (DMS-114): > 100 µM (inactive); GI50 (DMS-273): > 100 µM (inactive); GI50 (KM-20L2): 86.5 µM (inactive)
S=C(NN=C1NCCCCN1)Nc1ccc(Cl)cc1,11.4 µM (inactive),60 µM (inactive),
CCN(CC)CCNC(=O)C1COc2ccc(-c3cc(=O)c4ccccc4o3)cc2O1 (centres undefined),,,GI50 (XF498): 22.6 µM (inactive); GI50 (SNB-78): 10.1 µM (inactive); GI50 (M19-MEL): 18.3 µM (inactive); GI50 (DMS-273): 19.4 µM (inactive); GI50 (KM-20L2): 17.5 µM (inactive)
CCNc1ncnc2nn[nH]c12,> 100 µM (inactive),,
CCOS(C)(=O)=O [METHANESULFONIC ACID ETHYL ESTER],> 100 µM (inactive),> 100 µM (inactive),
CCc1cccc(C(C)C)c1NC(=O)CC1Sc2ccccc2NC1=O (centres undefined),,,GI50 (XF498): 53.6 µM (inactive); GI50 (SNB-78): > 100 µM (inactive); GI50 (DMS-114): 44.1 µM (inactive); GI50 (M19-MEL): 40.6 µM (inactive); GI50 (DMS-273): 34 µM (inactive)
Cn1c(=O)c2c(nc(Nc3ccc(Cl)cc3)n3c(=O)n(-c4ccccc4)c(=O)n23)n(C)c1=O,> 100 µM (inactive),> 100 µM (inactive),
N#Cc1c(-c2ccc([N+](=O)[O-])cc2)cc(-c2ccc(Nc3ccnc4cc(C(F)(F)F)ccc34)cc2)nc1N,9.77 µM (inactive),24.5 µM (inactive),
Cc1ccc2c(c1)C=CC(C#N)N2C(=O)Oc1ccccc1 (centres undefined),29 µM (inactive),41.6 µM (inactive),
CCCCCCc1cc2cc(C(=O)Nc3ccc(F)cc3)c(=N)oc2cc1O,3.57 µM (inactive),0.9 µM (active),
"N=C(N)NCCC[C@H](NC(=O)[C@@H]1CC2CCCCC2N1C(=O)[C@@H](NC(=O)[C@H](CO)NC(=O)[C@@H](NC(=O)CNC(=O)[C@@H]1CCCN1C(=O)[C@H](CCCNC(=N)N)NC(=O)[C@H](CCCNC(=N)N)NC(=N)CCCCCCC(=N)N[C@@H](CCCNC(=N)N)C(=O)N[C@@H](CCCNC(=N)N)C(=O)N1CCC[C@H]1C(=O)N1C[C@H](O)C[C@H]1C(=O)NCC(=O)N[C@H](C(=O)N[C@@H](CO)C(=O)N[C@H](C(=O)N1C2CCCCC2C[C@H]1C(=O)N[C@@H](CCCNC(=N)N)C(=O)O)C1Cc2ccccc2C1)C1Cc2ccccc2C1)C1Cc2ccccc2C1)C1Cc2ccccc2C1)C(=O)O (some centres undefined) (I: RP[Hyp]G[Igl]S[Igl][Oic(3aξ,7aξ)]R-OH / II: RPG[Igl]S[Igl][Oic(3aξ,7aξ)]R-OH; linker I:N-II:N via X42)",2.08 µM (inactive),2.91 µM (inactive),
O=C1NC(N2CCOCC2)=N/C1=C\c1ccc(O)cc1,> 100 µM (inactive),4.84 µM (inactive),
Nc1c(-c2ccccc2)c2ccc([N+](=O)[O-])cc2c(=O)n1-c1cccc(C(=O)O)c1,> 100 µM (inactive),61.2 µM (inactive),
O=C(O)C1C(=O)Oc2c(cccc2[N+](=O)[O-])C1O (centres undefined),> 100 µM (inactive),> 100 µM (inactive),
CO[C@@]12C[C@@H](CNC(=O)c3cc(Br)c[nH]3)O[C@@H]1NC(=O)N2,,> 100 µM (inactive),
NNC(=O)c1cc([N+](=O)[O-])ccc1NC(=O)C12CC3CC(CC(C3)C1)C2,21 µM (inactive),5.66 µM (inactive),
COc1cc(/C=N\O)cc(/C=N/O)c1O,39.9 µM (inactive),17.6 µM (inactive),

Compound,GI50 (MDA-N),GI50 (Hs-578T),other results
CCOC(=O)c1csc(NC(=O)CN2CCOCC2)n1,> 100 µM (inactive),> 100 µM (inactive),
CCCCCCCCC[C@@H]1C[C@@H]2CCC3C(C(=O)OC)=C(C)N=C(N1)N32 (some centres undefined),,4.66 µM (inactive),
C=CCNC(=O)N(CCCC(NC(C)=O)C(=O)NCc1ccccc1)Cc1ccccc1 (centres undefined),,,GI50 (XF498): > 100 µM (inactive); GI50 (DMS-114): > 100 µM (inactive); GI50 (M19-MEL): > 100 µM (inactive); GI50 (DMS-273): > 100 µM (inactive); GI50 (KM-20L2): > 100 µM (inactive)
CC(=O)OC1CC[C@@]2(C)C(=CC[C@@H]3[C@@H]2CC[C@]2(C)Nc4c(cnn4-c4ccc(F)cc4)C[C@@H]32)C1 (some centres undefined),39.2 µM (inactive),14.1 µM (inactive),
CCOP(=O)(O)C1C(CO)OC(n2ccc(=O)[nH]c2=O)C1O (centres undefined),> 100 µM (inactive),> 100 µM (inactive),
Nn1c(CNc2ccc(-c3nnc(Nc4ccc(Cl)cc4)n3N)cc2)nnc1Nc1ccc(Cl)cc1,80.7 µM (inactive),,
N#Cc1c2c(c(Nc3ccc(F)cc3)n3c1nc1ccccc13)CCC2,3.47 µM (inactive),,
CC(=O)OC[C@H]1O[C@@H](O[C@H]2[C@H](OC(C)=O)C=CO[C@@H]2COC(C)=O)C(OC(C)=O)[C@H]2OC(C)(C)O[C@H]21 (some centres undefined),,32.1 µM (inactive),
Cc1cn2c(C)csc2c1P(=O)(OC(C)C)OC(C)C,> 100 µM (inactive),> 100 µM (inactive),
COc1ccc2c(c1)[n+]([O-])c(-c1nc3ccccc3s1)c(N)[n+]2[O-],,,GI50 (SNB-78): > 100 µM (inactive); GI50 (M19-MEL): 49.7 µM (inactive); GI50 (DMS-273): > 100 µM (inactive); GI50 (KM-20L2): > 100 µM (inactive); GI50 (RXF 631): 88.5 µM (inactive)
CCc1nc(N)nc(N)c1-c1ccc([N+](=O)[O-])c(Cl)c1,,32.4 µM (inactive),
CC(C)=CC1C(COC(=O)c2cc3c(cc2Cl)OCO3)C1(C)C (centres undefined),29.5 µM (inactive),13.1 µM (inactive),
O=C(C/C(=N/O)C(F)(F)F)c1cccs1,> 100 µM (inactive),> 100 µM (inactive),
[O-][S+](Nc1ccccc1)c1ccc(Cl)cc1 (centres undefined),> 100 µM (inactive),38.1 µM (inactive),
S=C(Nc1ccccc1)c1ccc(CN2CCCCC2)s1,17.5 µM (inactive),25.3 µM (inactive),
N#CC1CNC(N)NC1N (centres undefined),> 100 µM (inactive),> 100 µM (inactive),
COc1cc(-c2cc(=O)c3c(O)c(OC)c(OC)c(OC)c3o2)ccc1O,,,GI50 (SNB-78): 27.7 µM (inactive); GI50 (DMS-114): 23.9 µM (inactive); GI50 (M19-MEL): 22.8 µM (inactive); GI50 (DMS-273): 5.08 µM (inactive); GI50 (KM-20L2): 40.2 µM (inactive)
